Assay results as given in ChEMBL document CHEMBL6096684, “Targeting IspD for Anti-infective and Herbicide Development: Exploring Its Role, Mechanism, and Structural Insights” (J Med Chem, 2025).
Blank lines part the entries; values can stand above or below the molecule they belong to.

Key:
[1] = Inhibition of Arabidopsis thaliana IspD
[2] = Inhibition of wild type Plasmodium falciparum IspD extracted from Escherichia coli BL21 (DE3)
[3] = Inhibition of Plasmodium vivax IspD
[4] = Inhibition of Plasmodium falciparum 3D7 IspD
[5] = Inhibition of Plasmodium falciparum IspD

IC50 [1]: 35 µM
Compound: N#Cc1cnn2c(O)c(Cc3ccccc3)c(Cl)nc12

IC50 [2]: 0.25 µM
Compound: O=C(O)[C@@H]1Cc2c([nH]c3ccccc23)[C@@H](c2ccc(Cl)cc2Cl)N1

IC50 [1]: 1.8 µM
Compound: COc1ccc2nc(NC(=O)c3cc(-c4ccccc4O)n[nH]3)sc2c1

IC50 [1]: 9.3 µM
Compound: Oc1c(Br)cc(Br)cc1-c1cc(C(F)(F)F)no1

Compound: Oc1c(Cl)cc(Cl)cc1-c1[nH]c(Br)c(Br)c1Br [TRIBROMODICHLOROPSEUDILIN]
IC50 [3]: 56 µM

IC50 [1]: 121 µM
Compound: Oc1c(Br)cc(Br)cc1-c1ccno1

IC50 [1]: 50 µM
Compound: CCN(CC)CCCC(C)n1c(N)c(-c2nc3ccccc3[nH]2)c2nc(C#N)c(C#N)nc21 (configuration not stated)

IC50 [4]: 1.1 µM
IC50 [5]: 0.073 µM
IC50 [3]: 0.057 µM
Compound: O=c1c2ccccc2sn1-c1cccc(-c2ccc(Cl)cc2)c1

IC50 [1]: > 500 µM
Compound: Oc1ccc(Br)cc1-c1ccno1

IC50 [1]: 6.3 µM
Compound: COc1ccc2nc(NC(=O)COc3ccc(-c4ccccc4)cc3)sc2c1

Compound: Oc1c(Br)cc(Br)cc1-c1[nH]c(Br)c(Br)c1Br [PENTABROMOPSEUDILIN]
IC50 [3]: 48 µM

IC50 [1]: 418 µM
Compound: Oc1ccc(Br)cc1-c1cc(C(F)(F)F)no1

IC50 [1]: 1.6 µM
Compound: CC(C)CCn1c(N)c(-c2nc3ccccc3[nH]2)c2nc3ccccc3nc21

IC50 [2]: 0.047 µM
Compound: O=C(O)[C@H]1Cc2c([nH]c3ccccc23)[C@H](c2ccc(Cl)cc2Cl)N1

IC50 [5]: 271 µM
Compound: Cc1ccc(C)n1-c1ccc([N+](=O)[O-])cc1C(=O)O

IC50 [1]: 274 µM
Compound: O=C(O)c1cnn2c(O)c(Cc3ccccc3)c(Cl)nc12

IC50 [2]: 0.17 µM
Compound: O=C(O)[C@H]1Cc2c([nH]c3ccccc23)[C@@H](c2ccc(Cl)cc2Cl)N1

IC50 [4]: 4.3 µM
IC50 [5]: 0.45 µM
IC50 [3]: 0.045 µM
Compound: Cc1ccc(-n2sc3ccccc3c2=O)cc1S(=O)(=O)N1CCOCC1
